Where “and” joins values, the source holds several entries; their conditions need not be identical. Equal entries are not always repeated.
Assay: Pharmacokinetic evaluation of bevirimat HPβCD formulation, intravenous, male Cynomolgus monkeys
Procedure: Six male Cynomolgus monkeys having an initial body weight of about 3.5 to about 4.5 kg are allowed 7 days to acclimate to their individual housing units. Monkeys are supplied with water and a commercial diet ad libitum prior to the study initiation. Food is withheld from the monkeys for a minimum of twelve hours before the study and during the study until four hours postdose when food is returned. Water is supplied ad libitum.
Test formulations are administered to the monkeys at time 0 on appropriate days. Test formulations will be dosed orally via oral gavage or intravenously.
Samples are drawn at the frequencies indicated below. Each blood sample (0.5 mL) is collected from the monkey's saphenous vein via a butterfly catheter and placed into a chilled polypropylene tube containing sodium heparin as the anticoagulant. Blood samples are centrifuged at a temperature of 4° C. at a speed of 3,000 rpm for 15 minutes. All samples are maintained chilled throughout processing. Plasma is collected after centrifugation, pipetted into a 2-mL polypropylene microtube, and frozen on dry-ice pending analytical evaluation.

[1] = 2.5 mg FAE/mL in 10% HPβCD+3% Mannitol in water, 10 mg FAE/monkey intravenous injection, monkeys 115,116,120,AVG
[2] = male, cynomolgus monkey, plasma, iv, 10 mg

SMILES: C=C(C)[C@@H]1CC[C@]2(C(=O)O)CC[C@]3(C)[C@H](CC[C@@H]4[C@@]5(C)CC[C@H](OC(=O)CC(C)(C)C(=O)O)C(C)(C)[C@@H]5CC[C@]43C)[C@@H]12 [Bevirimat, 3-O-(3′,3′-dimethylsuccinyl)betulinic acid]
- AUCall [1]: 81549 ng·h/mL and 84743 ng·h/mL
- C0 [1]: 54673 ng/mL and 39400 ng/mL
- CL [1]: 0.383 mL/min/kg and 0.533 mL/min/kg and 0.417 mL/min/kg
- Dnzed AUCall [1]: 46879 ng·h/mL/mg/kg and 41590 ng·h/mL/mg/kg and 31505 ng·h/mL/mg/kg and 39991 ng·h/mL/mg/kg
- t1/2 [1]: 24.7 h and 15.5 h and 18.3 h
- Plasma Concentration (0.033 hr, 2.5 mg FAE/mL in 10% HPβCD+3% Mannitol in water, 10 mg FAE/monkey intravenous injection, monkeys 115,116,120,AVG): 39400 ng/mL
- Plasma Concentration (0.25 hr, 2.5 mg FAE/mL in 10% HPβCD+3% Mannitol in water, 10 mg FAE/monkey intravenous injection, monkeys 115,116,120,AVG): 41600 ng/mL and 23100 ng/mL and 32333 ng/mL
- Plasma Concentration (0.50 hr, 2.5 mg FAE/mL in 10% HPβCD+3% Mannitol in water, 10 mg FAE/monkey intravenous injection, monkeys 115,116,120,AVG): 19800 ng/mL and 14800 ng/mL and 19967 ng/mL
- Plasma Concentration (1.0 hr, 2.5 mg FAE/mL in 10% HPβCD+3% Mannitol in water, 10 mg FAE/monkey intravenous injection, monkeys 115,116,120,AVG): 20200 ng/mL and 11700 ng/mL and 18233 ng/mL
- Plasma Concentration (12 hr, 2.5 mg FAE/mL in 10% HPβCD+3% Mannitol in water, 10 mg FAE/monkey intravenous injection, monkeys 115,116,120,AVG): 384 ng/mL and 404 ng/mL and 517 ng/mL
- Plasma Concentration (24 hr, 2.5 mg FAE/mL in 10% HPβCD+3% Mannitol in water, 10 mg FAE/monkey intravenous injection, monkeys 115,116,120,AVG): 367 ng/mL and 245 ng/mL and 320 ng/mL
- Plasma Concentration (48 hr, 2.5 mg FAE/mL in 10% HPβCD+3% Mannitol in water, 10 mg FAE/monkey intravenous injection, monkeys 115,116,120,AVG): 148 ng/mL and 81.0 ng/mL and 121 ng/mL
- Plasma Concentration (72 hr, 2.5 mg FAE/mL in 10% HPβCD+3% Mannitol in water, 10 mg FAE/monkey intravenous injection, monkeys 115,116,120,AVG, BLOQ=below 50 ng/mL): BLOQ
- concentration at 0.033 hr (male, cynomolgus monkey, in vivo, iv, 10 mg FAE/monkey, Plasma concentration, 0.033 hr, 2.5 mg FAE/mL in 10% HPβCD+3% Mannitol in water, 10 mg FAE/monkey intravenous injection, monkeys 115,116,120,AVG): 50600 ng/mL
- concentration at 0.25 hr (male, cynomolgus monkey, in vivo, iv, 10 mg FAE/monkey, Plasma concentration, 0.25 hr, 2.5 mg FAE/mL in 10% HPβCD+3% Mannitol in water, 10 mg FAE/monkey intravenous injection, monkeys 115,116,120,AVG): 32300 ng/mL
- concentration at 0.5 hr (male, cynomolgus monkey, in vivo, iv, 10 mg FAE/monkey, Plasma concentration, 0.50 hr, 2.5 mg FAE/mL in 10% HPβCD+3% Mannitol in water, 10 mg FAE/monkey intravenous injection, monkeys 115,116,120,AVG): 25300 ng/mL
- concentration at 1 hr (male, cynomolgus monkey, in vivo, iv, 10 mg FAE/monkey, Plasma concentration, 1.0 hr, 2.5 mg FAE/mL in 10% HPβCD+3% Mannitol in water, 10 mg FAE/monkey intravenous injection, monkeys 115,116,120,AVG): 22800 ng/mL
- concentration at 12 hr (male, cynomolgus monkey, in vivo, iv, 10 mg FAE/monkey, Plasma concentration, 12 hr, 2.5 mg FAE/mL in 10% HPβCD+3% Mannitol in water, 10 mg FAE/monkey intravenous injection, monkeys 115,116,120,AVG): 762 ng/mL
- concentration at 24 hr (male, cynomolgus monkey, in vivo, iv, 10 mg FAE/monkey, Plasma concentration, 24 hr, 2.5 mg FAE/mL in 10% HPβCD+3% Mannitol in water, 10 mg FAE/monkey intravenous injection, monkeys 115,116,120,AVG): 347 ng/mL
- concentration at 48 hr (male, cynomolgus monkey, in vivo, iv, 10 mg FAE/monkey, Plasma concentration, 48 hr, 2.5 mg FAE/mL in 10% HPβCD+3% Mannitol in water, 10 mg FAE/monkey intravenous injection, monkeys 115,116,120,AVG): 134 ng/mL
- AUC (male, cynomolgus monkey, in vivo, iv, 10 mg, AUCall, 2.5 mg FAE/mL in 10% HPβCD+3% Mannitol in water, 10 mg FAE/monkey intravenous injection, monkeys 115,116,120,AVG): 114000 ng·h/mL
- C0 (male, cynomolgus monkey, in vivo, iv, 10 mg, C0, 2.5 mg FAE/mL in 10% HPβCD+3% Mannitol in water, 10 mg FAE/monkey intravenous injection, monkeys 115,116,120,AVG): 54200 ng/mL
- half-life (male, cynomolgus monkey, in vivo, iv, 10 mg, t1/2, 2.5 mg FAE/mL in 10% HPβCD+3% Mannitol in water, 10 mg FAE/monkey intravenous injection, monkeys 115,116,120,AVG): 14.7 h
- AUC [2]: 58300 ng·h/mL
- C0 [2]: 49400 ng/mL
- Tmax [2]: 0 h
- clearance (male, cynomolgus monkey, plasma, iv, 10 mg, CL, 2.5 mg FAE/mL in 10% HPβCD+3% Mannitol in water, 10 mg FAE/monkey intravenous injection, monkeys 115,116,120,AVG): 0.333 mL/min/kg
